Results on four molecules are retold here after publication PMC11990924, “Inhibition of Tyrosinase and Melanogenesis by Carboxylic Acids: Mechanistic Insights and Safety Evaluation” (Molecules, 2025).

In brackets after ≈: the same amount, converted by molar mass. Read-outs that look alike come from different tables or passages of the source.

For one series, the target named is mushroom tyrosinase (Agaricus bisporus, UniProt C7FF04). As to the kind of experiment: Inhibition of mushroom tyrosinase activity (L-DOPA, OD475). It is filed as biochemical. Conditions: read-out: tyrosinase inhibition rate. The method, then: L-DOPA solution (5 mM) and tyrosinase (400 U/mL) (Sigma-Aldrich, St. Louis, MO, USA) were prepared in PBS buffer (pH 7.4) (Qingdao Hope Bio-Technology Co., Ltd., Qingdao, China). A reaction mixture was prepared by combining 240 μL of carboxylic acid at various concentrations, 360 μL of L-DOPA solution, and 120 μL of tyrosinase. […] Deionized water was used as the control.
Sequence of mushroom tyrosinase (C7FF04 2-392): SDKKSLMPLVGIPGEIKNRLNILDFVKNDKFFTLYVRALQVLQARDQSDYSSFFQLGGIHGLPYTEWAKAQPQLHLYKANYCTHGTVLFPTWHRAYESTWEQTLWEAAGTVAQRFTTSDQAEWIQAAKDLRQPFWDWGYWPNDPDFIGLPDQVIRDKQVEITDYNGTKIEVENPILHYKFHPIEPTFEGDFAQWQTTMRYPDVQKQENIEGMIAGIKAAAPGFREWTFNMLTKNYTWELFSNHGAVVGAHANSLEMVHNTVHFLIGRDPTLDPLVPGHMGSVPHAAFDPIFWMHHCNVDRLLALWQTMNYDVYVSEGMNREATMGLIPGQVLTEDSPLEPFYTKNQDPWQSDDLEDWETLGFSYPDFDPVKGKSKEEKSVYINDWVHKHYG

Series [1] in a line: Cell viability of B16-F10 by MTT. It counts as cell-based. Conditions: mouse, B16-F10 cells. The method, then:
B16-F10 cells were seeded in 96-well plates at a density of 1 × 10^5 cells/mL and cultured at 37 °C with 5% CO2 for 24 h. Subsequently, various concentrations of carboxylic acids were added, and the cells were further incubated for 24 h. Then, 6 μL of MTT (5 mg/mL) was added, and the cells were cultured for an additional 4 h. Afterward, 200 μL of DMSO was added to dissolve the formazan crystals by gently pipetting up and down. The absorbance at 570 nm (OD570) was measured using a microplate reader (Infinite 200Pro, Tecan), with deionized water serving as the control. The cell viability was calculated with Equation (2): (2) [(OD570 of sample)/OD570 of control]×100%

Series [2] concerns the target T1, tyrosinase (Agaricus bisporus, UniProt C7FF04).
T1 construct: purchased Sigma-Aldrich
The series can be described thus: Fluorescence spectra analysis of tyrosinase. It counts as binding, mushroom. Conditions: 6 mM; excitation 280 nm. As for the experimental part:
Carboxylic acid solutions at various concentrations were mixed with PBS buffer and tyrosinase (final concentration of 60 U/mL) and then transferred to a black 96-well plate. Fluorescence analysis was conducted using a microplate reader (Infinite 200Pro, Tecan).

Series [3] has as its target T1, tyrosinase. The series can be described thus: Kinetic analysis of tyrosinase (Lineweaver–Burk). It is filed as biochemical, mushroom. The conditions noted are these: for inhibition mechanism: Lineweaver–Burk double-reciprocal plots. The method, then: L-DOPA solutions at various concentrations (0.5, 1, 2, and 4 mM) were prepared in PBS buffer (pH 7.4) and mixed with carboxylic acids at different concentrations and tyrosinase (final concentration of 60 U/mL). […] The reaction rates were calculated based on the OD values. To analyze the inhibition types of the four carboxylic acids on tyrosinase, double-reciprocal Lineweaver–Burk plots were constructed with 1/v (reaction rate) as the y-axis and 1/[S] (substrate concentration) as the x-axis. The maximum reaction velocity (Vmax) and Michaelis constant (Km) were determined using GraphPad Prism 10 (GraphPad Software, Massachusetts, USA).

Series [4] in a line: pH of carboxylic acid mixed with PBS buffer, without tyrosinase. It counts as physicochemical. The conditions noted are these: in PBS buffer, absence of tyrosinase.
The subject of another series is B16-F10 cells. The series can be described thus: Melanin content analysis of B16-F10 cells (α-MSH stimulated). It counts as cell-based. The conditions noted are these: Mus musculus, B16-F10, α-MSH 1 μM, 48 h, read-out: melanin inhibition rate; for inhibition at 6000 µM: 6 mM. As for the experimental part:
A 900 μL cell suspension with an approximate density of 50% confluence was seeded into a 12-well plate and cultured for 24 h at 37 °C with 5% CO2. Subsequently, various concentrations of carboxylic acids were added, and the cells were further incubated for 1 h. Then, 1 μL of 1 mM α-melanocyte-stimulating hormone (α-MSH) solution was added to achieve a final concentration of 1 μM, and the cells were cultured for an additional 48 h at 37 °C with 5% CO2 to stimulate melanogenesis. Afterward, the cells were digested with trypsin, collected by centrifugation at 10,000 rpm for 5 min (Andreas Hettich GmbH & Co., KG, Tuttlingen, Germany), and the supernatant was discarded. Each tube was treated with 200 μL of 1 M NaOH solution and incubated in a water bath at 60 °C for 20 min. Following incubation, the samples were vortexed to ensure homogeneity, and 200 μL of each sample was transferred to a 96-well plate. The absorbance at 405 nm (OD405) was measured using a microplate reader (Infinite 200Pro, Tecan), and the data were recorded to calculate the melanin content, with deionized water serving as the control. The reduction in melanin content was calculated with Equation (3):(3) [(OD405 of control−OD405 of sample)/OD405 of control]×100%

The nature of series [5]: L-DOPA auto-oxidation analysis. Conditions: for L-DOPA auto-oxidation inhibition rate: 1.5 mM; for IC50: 37 °C, 12 h, calculated using SPSS, read-out: IC50 for L-DOPA auto-oxidation inhibition. As for the experimental part: A 5 mM L-DOPA solution was prepared in PBS buffer (pH 7.4). Subsequently, 240 μL of carboxylic acid solution, 360 μL of L-DOPA solution, and 120 μL of PBS buffer were sequentially mixed. The mixture was then incubated at 37 °C for 12 h. […] Deionized water was used as the control. The inhibition of L-DOPA auto-oxidation was calculated using the same method as the melanin content analysis.

The conditions of series [6]: cited from earlier work.
The target of series [7] is tyrosinase from BioVision, Inc. (claimed to be of human origin). Set-up: method as in PMID 38909081. The conditions noted are these: cited from earlier work.
Another series deals with tyrosinase and Tyrp 1/2. The conditions noted are these: Western blot; 300 and 500 μg/mL, 48 h intervals during 5 d culture; cited from earlier work. (A western blot detects proteins with antibodies after separation by electrophoresis.)
In another series the test system is rats. Conditions: cited from earlier work.
Another series concerns guinea pigs. The conditions noted are these: cited from earlier work.

T1 sequence (C7FF04 1-392 limits assumed): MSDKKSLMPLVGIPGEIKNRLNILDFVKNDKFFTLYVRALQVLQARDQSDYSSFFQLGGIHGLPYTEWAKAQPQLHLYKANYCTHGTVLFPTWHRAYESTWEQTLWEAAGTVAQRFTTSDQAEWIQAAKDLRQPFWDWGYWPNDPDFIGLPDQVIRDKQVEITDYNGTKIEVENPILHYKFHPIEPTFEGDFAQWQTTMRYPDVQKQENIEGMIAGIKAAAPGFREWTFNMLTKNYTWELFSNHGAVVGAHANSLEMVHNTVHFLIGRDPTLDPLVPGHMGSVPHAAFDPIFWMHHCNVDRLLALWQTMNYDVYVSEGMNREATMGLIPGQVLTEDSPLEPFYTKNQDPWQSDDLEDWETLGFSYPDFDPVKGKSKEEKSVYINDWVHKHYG

By inhibition is commonly meant how much of the control response was suppressed. For orientation: viability means a read-out of living cells in per cent, often relative to untreated cells. Higher therefore signals less harm to the cells. By Ki is commonly meant the equilibrium dissociation constant of an inhibitor or competing ligand from its target. For orientation: IC50 means the point on the concentration scale where inhibition reaches its midpoint. As to `O=C(O)[C@@H]1CCC(O)=N1` [L-pyroglutamic acid], the inhibition at 6000 µM on mushroom tyrosinase (6 mM) was more than 80%. The molecule also had a viability at 24 h, 6 mM in series [1] of more than 90%. On tyrosinase [2], the “decrease of tyrosinase fluorescence intensity” value is reported as 48.6%. Further, on tyrosinase [3], the Ki was found to be 1.95 mM and the inhibition mechanism result is given as “competitive inhibition”. For the same molecule, the pH in [4] (6 mM) stood at 3.7. Further, in the series on B16-F10 cells, the inhibition at 6000 µM was found to be 27.8%. In series [5], the “L-DOPA auto-oxidation inhibition rate” value is “exceeding 80%” and the IC50 was 660 µM.

For the molecule `O=C1O[C@H]([C@@H](O)CO)C(O)=C1O` [ascorbic acid], the “IC50 DOPA auto-oxidation inhibition” value in [6] is given as 989.6 µg/mL (≈ 5.62 mM).

As to `O=c1cc(CO)occ1O` [kojic acid, reference compound], in [7], the IC50 is 9.27 µM. Further, the “IC50 DOPA auto-oxidation inhibition” value in series [6] is on record as 418.5 µg/mL (≈ 2.94 mM).

Turning to `CC(O)C(=O)O` (centres unmarked) [lactic acid], the “regulatory effect on melanogenesis-related proteins (tyrosinase and Tyrp 1/2)” value in the series on tyrosinase and Tyrp 1/2 was “no significant regulatory effects”. For the same molecule, the inhibition at 6000 µM at mushroom tyrosinase turned out to be 47%; in the series on B16-F10 cells it was 14.1%. In addition, the inhibition at 12000 µM is 89% at mushroom tyrosinase and 29.4% with B16-F10 cells (12 mM). The same molecule returned a viability at 24 h, 6 mM in series [1] of more than 90%. In series [1] (12 mM), this molecule yielded a viability at 24 h, 12 mM of 97%. Further, the figures for the “oral LD50” value with rats and in the series with guinea pigs were 3730 mg/kg and 1810 mg/kg, respectively. For the same molecule, the “decrease of tyrosinase fluorescence intensity” value at tyrosinase [2] came out at 45.0%. Also, the Ki at tyrosinase [3] (GraphPad Prism, mixed-model or competitive model, read-out: inhibition constant (Ki)) worked out at 2.71 mM. The inhibition mechanism entry against tyrosinase [3] is “mixed-type inhibition”. In addition, at tyrosinase [3] (mixed-type inhibitors), the “inhibition constant (KIS) for enzyme–substrate complex” value was 17.032 mM. Moreover, the pH entry in [4] (6 mM) is “around 6”; in series [4] (12 mM), 3.6. Further, in series [5], the “L-DOPA auto-oxidation inhibition rate” value is “exceeding 80%”. Moreover, in series [5], the IC50 was 570 µM.
